Test results reported in patent publication US9718819B2 (Merck Sharp & Dohme Corp., priority 2012, dated 2017).

What follows are compounds tested against HIV-1 RT wild-type enzyme (Human immunodeficiency virus type 1 group M subtype B (isolate HXB2) (HIV-1), UniProt P04585) (assay: HIV-1 reverse transcriptase inhibitory activity (RT polymerase assay)). Details: not given.
Format: biochemical
Protocol: Determination of HIV-1 Reverse Transcriptase Inhibitory Activity
The heterodimeric nucleic acid substrate used in the HIV-1 RT polymerase reactions was generated by annealing the DNA primer, biotinylated pD500 (Sigma Aldrich, USA, 5′-biotin-ttg aaa tga ctg cgg tac ggc-3′), SEQ ID NO. 1 to the nucleotide RNA template t500 (derived from hepatitis C virus [HCV] sequence, IBA, Germany, 5′-[…]-3′), SEQ ID NO 2). […] The mixture was then preincubated on an orbital shaker for 30 min at room temperature in microtiter plates (Costar 3365, Corning, USA). A polymerization reaction was initiated by the addition of RNA template/pD500 DNA primer hybrid (16.6 nM final of RNA/DNA hybrid) and dNTPs (2 μM dATP, dGTP, dCTP and 66.6 nM Ru-dUTP (Meso Scale Discovery, USA)). Plate was sealed and incubated for 5-10 min at room temperature on an orbital shaker. Plate was then incubated for 90 min at 37° C. and reactions quenched with 60 μl quenching buffer (50 mM EDTA, 0.7% BSA, 0.7% Tween-20, 0.017% sodium azide in PBS). The resulting solution was incubated at room temperature for an additional 5 min and then 50 μL was transferred to pre-blocked Avidin plates (L15AA, Meso Scale Discovery). Each well of Avidin plate was blocked for 1 h at room temperature with 100 μL 5% BSA in PBS. Blocking solution was removed by tapping vigorously on filter paper to remove all excess liquid. Reaction on pre-blocked avidin plate proceeded for 60 min at room temperature and then contents removed by tapping vigorously on filter paper to remove all excess liquid. After washing plate 3 times with 150 μL 1×PBS and blotting dry between cycles, 150 μL 1× Read Buffer T (4× Read Buffer T, Meso Scale Discovery) was added and incubated for 5 min at room temperature before counting on a Sector Imager […] (Meso Scale Discovery). Titration curves and IC50 values were calculated using a four parameter logisitc fit according to standard procedures. Briefly, % Inhibition=100×((sample raw value)−(mean value of the low control or 0% inhibition))/((mean value of wells representing 100% inhbition)−(mean value of 0% inhbition)). In this assay, low control wells contain DMSO (0% inhbition) and 100% inhibition wells contain 1 μM efavirenz.

Work on `N#Cc1cc(Cl)cc(Oc2c(C(F)(F)F)ncn(Cc3cc(CO)c(=O)[nH]n3)c2=O)c1` [Example 12, 3-chloro-5-((1-((5-(hydroxymethyl)-6-oxo-1,6-dihydropyridazin-3-yl)methyl)-6-oxo-4-(trifluoromethyl)-1,6-dihydropyrimidin-5-yl)oxy)benzonitrile] yielded an IC50 of 32 nM.

Same assay, conditions: HIV-1 RT wild-type enzyme 83 pM; RNA-dependent DNA polymerase activity; read-out: IC50

Point of comparison: `O=c1ccc(Cn2cnc(C(F)(F)F)c(Oc3cc(Cl)cc(C(F)(F)F)c3)c2=O)n[nH]1` [Example 21, 6-((5-(3-chloro-5-(trifluoromethyl)phenoxy)-6-oxo-4-(trifluoromethyl)pyrimidin-1(6H)-yl)methyl)pyridazin-3(2H)-one], IC50 29 nM. Against it:
- N#Cc1cc(Cl)cc(Oc2c(C(F)(F)F)ncn(Cc3n[nH]c(=O)c4cccnc34)c2=O)c1 [Example 1, 3-chloro-5-((6-oxo-1-((5-oxo-5,6-dihydropyrido[2,3-d]pyridazin-8-yl)methyl)-4-(trifluoromethyl)-1,6-dihydropyrimidin-5-yl)oxy)benzonitrile] — 6.6-fold higher, 191 nM
- N#Cc1cc(Cl)cc(Oc2c(C(F)(F)F)ncn(Cc3cnc(O)cn3)c2=O)c1 [Example 2, 3-chloro-5-((1-((5-hydroxypyrazin-2-yl)methyl)-6-oxo-4-(trifluoromethyl)-1,6-dihydropyrimidin-5-yl)oxy)benzonitrile] — 4.1-fold higher, 118 nM
- Cn1cc(Cn2cnc(C(F)(F)F)c(Oc3cc(Cl)cc(C#N)c3)c2=O)ncc1=O [Example 3, 3-chloro-5-((1-((4-methyl-5-oxo-4,5-dihydropyrazin-2-yl)methyl)-6-oxo-4-(trifluoromethyl)-1,6-dihydropyrimidin-5-yl)oxy)benzonitrile] — within 1.5-fold, 33 nM
- N#Cc1cc(Cl)cc(Oc2c(C(F)(F)F)ncn(Cc3ncc[nH]c3=O)c2=O)c1 [Example 4, 3-chloro-5-((6-oxo-1-((3-oxo-3,4-dihydropyrazin-2-yl)methyl)-4-(trifluoromethyl)-1,6-dihydropyrimidin-5-yl)oxy)benzonitrile] — 4.3-fold higher, 124 nM
- N#Cc1cc(Cl)cc(Oc2c(C(F)(F)F)ncn(Cc3ccn[nH]c3=O)c2=O)c1 [Example 5, 3-chloro-5-((6-oxo-1-((3-oxo-2,3-dihydropyridazin-4-yl)methyl)-4-(trifluoromethyl)-1,6-dihydropyrimidin-5-yl)oxy)benzonitrile] — 4.8-fold lower, 6 nM
- [2H]C([2H])(c1ccc(=O)[nH]n1)n1cnc(C(F)(F)F)c(Oc2cc(Cl)cc(C#N)c2)c1=O [Example 8] — 3.2-fold lower, 9 nM
- N#Cc1cc(Cl)cc(Oc2c(C(F)(F)F)ncn(Cc3cc(C4CC(F)(F)C4)c(=O)[nH]n3)c2=O)c1 [Example 9, 3-chloro-5-((1-((5-(3,3-difluorocyclobutyl)-6-oxo-1,6-dihydropyridazin-3-yl)methyl)-6-oxo-4-(trifluoromethyl)-1,6-dihydropyrimidin-5-yl)oxy)benzonitrile] — 3.8-fold higher, 109 nM
- CC(C)c1cc(Cn2cnc(C(F)(F)F)c(Oc3cc(Cl)cc(C#N)c3)c2=O)n[nH]c1=O [Example 10, 3-chloro-5-((1-((5-isopropyl-6-oxo-1,6-dihydropyridazin-3-yl)methyl)-6-oxo-4-(trifluoromethyl)-1,6-dihydropyrimidin-5-yl)oxy)benzonitrile] — 4.1-fold lower, 7 nM
- CC(C)(O)c1cc(Cn2cnc(C(F)(F)F)c(Oc3cc(Cl)cc(C#N)c3)c2=O)n[nH]c1=O [Example 11, 3-chloro-5-((1-((5-(2-hydroxypropan-2-yl)-6-oxo-1,6-dihydropyridazin-3-yl)methyl)-6-oxo-4-(trifluoromethyl)-1,6-dihydropyrimidin-5-yl)oxy)benzonitrile] — 4.3-fold higher, 124 nM
- Cc1ncn(Cc2ccc(=O)[nH]n2)c(=O)c1Oc1cc(Cl)cc(C#N)c1 [Example 13, 3-chloro-5-((4-methyl-6-oxo-1-((6-oxo-1,6-dihydropyridazin-3-yl)methyl)-1,6-dihydropyrimidin-5-yl)oxy)benzonitrile] — the same, 29 nM
- CC(O)c1cc(Cn2cnc(C(F)(F)F)c(Oc3cc(Cl)cc(C#N)c3)c2=O)n[nH]c1=O (centres unmarked) [Example 14, 3-chloro-5-((1-((5-(1-hydroxyethyl)-6-oxo-1,6-dihydropyridazin-3-yl)methyl)-6-oxo-4-(trifluoromethyl)-1,6-dihydropyrimidin-5-yl)oxy)benzonitrile] — 3.8-fold higher, 109 nM
- CC(F)c1cc(Cn2cnc(C(F)(F)F)c(Oc3cc(Cl)cc(C#N)c3)c2=O)n[nH]c1=O (centres unmarked) [Example 15, 3-chloro-5-((1-((5-(1-fluoroethyl)-6-oxo-1,6-dihydropyridazin-3-yl)methyl)-6-oxo-4-(trifluoromethyl)-1,6-dihydropyrimidin-5-yl)oxy)benzonitrile] — 2.2-fold lower, 13 nM
- N#Cc1cc(Cl)cc(Oc2c(C(F)(F)F)ncn(Cc3cc(CF)c(=O)[nH]n3)c2=O)c1 [Example 16, 3-chloro-5-((1-((5-(fluoromethyl)-6-oxo-1,6-dihydropyridazin-3-yl)methyl)-6-oxo-4-(trifluoromethyl)-1,6-dihydropyrimidin-5-yl)oxy)benzonitrile] — 2.4-fold lower, 12 nM
- N#Cc1cc(Cl)cc(Oc2c(C(F)(F)F)ncn(Cc3cc(C(O)C4CC4)c(=O)[nH]n3)c2=O)c1 (centres unmarked) [Example 17, 3-chloro-5-((1-((5-(cyclopropyl(hydroxy)methyl)-6-oxo-1,6-dihydropyridazin-3-yl)methyl)-6-oxo-4-(trifluoromethyl)-1,6-dihydropyrimidin-5-yl)oxy)benzonitrile] — 6.2-fold higher, 179 nM
- N#Cc1cc(Cl)cc(Oc2c(C(F)(F)F)ncn(Cc3ccc(=O)[nH]n3)c2=O)c1Cl [Example 18, 2,5-dichloro-3-((6-oxo-1-((6-oxo-1,6-dihydropyridazin-3-yl)methyl)-4-(trifluoromethyl)-1,6-dihydropyrimidin-5-yl)oxy)benzonitrile] — 5.8-fold lower, 5 nM
- N#Cc1cc(F)cc(Oc2c(C(F)(F)F)ncn(Cc3ccc(=O)[nH]n3)c2=O)c1 [Example 19, 3-fluoro-5-((6-oxo-1-((6-oxo-1,6-dihydropyridazin-3-yl)methyl)-4-(trifluoromethyl)-1,6-dihydropyrimidin-5-yl)oxy)benzonitrile] — within 1.5-fold, 31 nM
- N#Cc1cc(Oc2c(C(F)(F)F)ncn(Cc3ccc(=O)[nH]n3)c2=O)cc(C(F)(F)F)c1 [Example 20, 3-((6-oxo-1-((6-oxo-1,6-dihydropyridazin-3-yl)methyl)-4-(trifluoromethyl)-1,6-dihydropyrimidin-5-yl)oxy)-5-(trifluoromethyl) benzonitrile] — within 1.5-fold, 24 nM
- N#Cc1cc(Cl)cc(Oc2c(C(F)(F)F)ncn(Cc3cc(-c4ccccc4)c(=O)[nH]n3)c2=O)c1 [Example 22] — 9.7-fold lower, 3 nM
- Cn1nc(Cn2cnc(C(F)(F)F)c(Oc3cc(Cl)cc(C#N)c3)c2=O)cc(Br)c1=O [Example 23] — within 1.5-fold, 38 nM
- N#Cc1cc(Cl)cc(Oc2c(C(F)(F)F)ncn(Cc3cc(-c4ccc(OC(F)(F)F)cc4)c(=O)[nH]n3)c2=O)c1 [Example 24, 3-chloro-5-((6-oxo-1-((6-oxo-5-(4-(trifluoromethoxy)phenyl)-1,6-dihydropyridazin-3-yl)methyl)-4-(trifluoromethyl)-1,6-dihydropyrimidin-5-yl)oxy)benzonitrile] — within 1.5-fold, 24 nM
- N#Cc1cc(Cl)cc(Oc2c(C(F)(F)F)ncn(Cc3cc(-c4ccccc4F)c(=O)[nH]n3)c2=O)c1 [Example 25, 3-chloro-5-((1-((5-(2-fluorophenyl)-6-oxo-1,6-dihydropyridazin-3-yl)methyl)-6-oxo-4-(trifluoromethyl)-1,6-dihydropyrimidin-5-yl)oxy)benzonitrile] — 3.2-fold lower, 9 nM
